Laboratory results reported in article PMC10017709, “Structural basis of selective cannabinoid CB2 receptor activation” (Nature Communications, 2023).
Several values for one entry are separate records, joined by “and”; a condition that tells them apart may be missing. Identical values can stand only once. Like-named read-outs stand apart in the source and are kept apart here.

What was measured:
[1] = target: CB2R-L185^ECL2H (Homo sapiens, UniProt P34972, L185H); experiment: [35S]GTPγS assay, CB2R L185H mutant; format: biochemical; settings: L185H mutant; at 10 µM compared to WT; read-out: Emax (%)
[2] = target: T1, CB2R WT (Homo sapiens, UniProt P34972); experiment: [3H]CP55,940 displacement assay, CB2R WT; format: binding; settings: CB2R - WT, individual replicates
[3] = target: T2, CB1R I267ECL2L (Homo sapiens, UniProt P21554, I267L); experiment: [3H]CP55,940 displacement assay, CB1R I267L mutant; format: binding
[4] = target: CB2R-I110^3.29L (Homo sapiens, UniProt P34972, I110L); experiment: [3H]CP55,940 displacement assay, CB2R I110L mutant; format: binding; settings: I1103.29L, individual replicates
[5] = target: T3, CB1R-L359^6.51V (Homo sapiens, UniProt P21554, L359V); experiment: [3H]CP55,940 displacement assay, CB1R L359V mutant; format: binding
[6] = target: T4, CB1R-H270^ECL2L (Homo sapiens, UniProt P21554, H270L); experiment: [3H]CP55,940 displacement assay, CB1R H270L mutant; format: binding
[7] = target: CB2R-V261^6.51L (Homo sapiens, UniProt P34972, V261L); experiment: [35S]GTPγS assay, CB2R V261L mutant; format: biochemical; settings: for [35S]GTPγS binding: V2616.51L, individual replicates
[8] = target: CB2R-Quadruple^TM1,7 (Homo sapiens, UniProt P34972, C40S/K279T/K33Q/V36I); experiment: [3H]CP55,940 displacement assay, CB2R quadruple mutant; format: binding; settings: QuadrupleTM1,7, individual replicates
[9] = target: T5, CB1R D266ECL2E (Homo sapiens, UniProt P21554, D266E); experiment: [35S]GTPγS assay, CB1R D266E mutant; format: biochemical; settings: CB1R D266E; 10 µM agonist
T5 construct: The WT CB1R and CB2R genes were subcloned into vector pcDNA3.1; HA signal peptide (N); expressed in transfected cells; host or cells: HEK293T (transient, membrane homogenates)

[10] = target: T3, CB1R-L359^6.51V; experiment: [35S]GTPγS assay, CB1R L359V mutant; format: biochemical; settings: CB1R L359V; 10 µM agonist
[11] = target: CB2R-S285^7.39A (Homo sapiens, UniProt P34972, S285A); experiment: [35S]GTPγS assay, CB2R S285A mutant; format: biochemical; settings: S285A mutant; at 10 µM compared to WT; read-out: Emax (%)
[12] = target: T2, CB1R I267ECL2L; experiment: [35S]GTPγS assay, CB1R I267L mutant; format: biochemical; settings: CB1R I267L; 10 µM agonist
[13] = target: CB2R-I110^3.29A (Homo sapiens, UniProt P34972, I110A); experiment: [35S]GTPγS assay, CB2R I110A mutant; format: biochemical; settings: for [35S]GTPγS binding: I1103.29A, individual replicates
[14] = target: CB2R-L182^ECL2I (Homo sapiens, UniProt P34972, L182I); experiment: [35S]GTPγS assay, CB2R L182I mutant; format: biochemical; settings: L182I mutant; at 10 µM compared to WT; read-out: Emax (%)
[15] = target: T6, hCB2R (Homo sapiens, UniProt P34972); experiment: [3H]RO6957022 competition association assay; format: binding; settings: individual replicates
T6 construct: host or cells: CHO-K1 (CHOK1_hCB2bgal, PathHunter), membranes

[16] = target: CB2R-F117^3.36A (Homo sapiens, UniProt P34972, F117A); experiment: [35S]GTPγS assay, CB2R F117A mutant; format: biochemical
[17] = target: T1, CB2R WT; experiment: [35S]GTPγS G protein activation assay, CB2R WT; format: biochemical; settings: for Emax: CB2R WT, read-out: Emax (%); for [35S]GTPγS binding, percentage of CP55,940: individual replicates
[18] = target: T4, CB1R-H270^ECL2L; experiment: [35S]GTPγS assay, CB1R H270L mutant; format: biochemical; settings: CB1R H270L; 10 µM agonist
[19] = target: T6, hCB2R; experiment: [3H]RO6957022 displacement assay; format: binding; settings: individual replicates

CB2R-V261^6.51L, sequence (P34972 whole entry V261L): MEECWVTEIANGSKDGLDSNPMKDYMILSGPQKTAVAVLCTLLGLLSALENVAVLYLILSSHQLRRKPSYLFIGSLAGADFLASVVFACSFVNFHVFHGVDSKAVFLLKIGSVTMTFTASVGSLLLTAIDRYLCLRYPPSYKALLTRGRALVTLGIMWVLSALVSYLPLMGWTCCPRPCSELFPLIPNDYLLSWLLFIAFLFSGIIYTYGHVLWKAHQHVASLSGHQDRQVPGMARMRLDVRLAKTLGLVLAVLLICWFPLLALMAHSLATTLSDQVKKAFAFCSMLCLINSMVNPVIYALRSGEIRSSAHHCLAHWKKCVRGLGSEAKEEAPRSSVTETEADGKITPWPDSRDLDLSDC
CB2R-F117^3.36A, sequence (P34972 whole entry F117A): as the sequence (P34972 whole entry V261L) above, with F117A, L261V counted along it
T6 sequence (P34972 whole entry): as the sequence (P34972 whole entry V261L) above, with L261V counted along it
T1 sequence (P34972 whole entry): as the sequence (P34972 whole entry V261L) above, with L261V counted along it
CB2R-I110^3.29A, sequence (P34972 whole entry I110A): as the sequence (P34972 whole entry V261L) above, with I110A, L261V counted along it
T2 sequence (P21554 whole entry I267L): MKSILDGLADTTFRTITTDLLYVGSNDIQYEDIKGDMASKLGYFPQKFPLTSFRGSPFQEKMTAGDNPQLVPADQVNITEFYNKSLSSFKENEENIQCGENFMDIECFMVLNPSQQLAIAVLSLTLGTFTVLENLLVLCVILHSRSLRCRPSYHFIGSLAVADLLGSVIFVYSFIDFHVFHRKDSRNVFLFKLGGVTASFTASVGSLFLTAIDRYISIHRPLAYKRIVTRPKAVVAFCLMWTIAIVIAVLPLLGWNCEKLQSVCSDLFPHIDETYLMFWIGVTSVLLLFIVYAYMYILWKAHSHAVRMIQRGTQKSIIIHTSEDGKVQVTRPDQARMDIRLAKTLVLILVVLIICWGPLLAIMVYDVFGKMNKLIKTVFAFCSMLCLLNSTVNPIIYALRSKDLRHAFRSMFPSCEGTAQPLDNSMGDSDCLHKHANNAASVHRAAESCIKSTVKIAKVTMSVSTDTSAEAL
CB2R-I110^3.29L, sequence (P34972 whole entry I110L): as the sequence (P34972 whole entry V261L) above, with I110L, L261V counted along it
T4 sequence (P21554 whole entry H270L): as the sequence (P21554 whole entry I267L) above, with L267I, H270L counted along it
CB2R-Quadruple^TM1,7, sequence (P34972 whole entry K33Q/V36I/C40S/K279T): as the sequence (P34972 whole entry V261L) above, with K33Q, V36I, C40S, L261V, K279T counted along it
T3 sequence (P21554 whole entry L359V): as the sequence (P21554 whole entry I267L) above, with L267I, L359V counted along it
CB2R-S285^7.39A, sequence (P34972 whole entry S285A): as the sequence (P34972 whole entry V261L) above, with L261V, S285A counted along it
CB2R-L185^ECL2H, sequence (P34972 whole entry L185H): as the sequence (P34972 whole entry V261L) above, with L185H, L261V counted along it
CB2R-L182^ECL2I, sequence (P34972 whole entry L182I): as the sequence (P34972 whole entry V261L) above, with L182I, L261V counted along it
T5 sequence (P21554 whole entry D266E): as the sequence (P21554 whole entry I267L) above, with D266E, L267I counted along it

- Emax [1]: 183 ± 16%
- percentage specific [3H]CP55,940 binding ([2]; log [ligand] (M) -5): 6.97% and 9.11% and 6.37%
- percentage specific [3H]CP55,940 binding ([2]; log [ligand] (M) -6): 8.91% and 9.80% and 15.97%
- percentage specific [3H]CP55,940 binding ([2]; log [ligand] (M) -7): 35.26% and 29.34% and 24.47%
- percentage specific [3H]CP55,940 binding ([2]; log [ligand] (M) -8): 67.55% and 60.65% and 76.97%
- percentage specific [3H]CP55,940 binding ([2]; log [ligand] (M) -9): 110.80% and 85.34% and 106.79%
- percentage specific [3H]CP55,940 binding ([2]; log [ligand] (M) -10): 91.01% and 87.78% and 110.76%
- Displacement (%) of [3H]CP55,940 ([3]; CB1R I267L, 10 µM compound): -24 ± 17%
- percentage specific [3H]CP55,940 binding ([4]; log [ligand] (M) -5): 4.49% and 2.95% and 7.70%
- percentage specific [3H]CP55,940 binding ([4]; log [ligand] (M) -6): 22.45% and 22.51% and 25.37%
- percentage specific [3H]CP55,940 binding ([4]; log [ligand] (M) -7): 63.92% and 66.51% and 68.51%
- percentage specific [3H]CP55,940 binding ([4]; log [ligand] (M) -8): 89.64% and 87.54% and 115.07%
- percentage specific [3H]CP55,940 binding ([4]; log [ligand] (M) -9): 93.11% and 90.99% and 98.90%
- percentage specific [3H]CP55,940 binding ([4]; log [ligand] (M) -10): 86.70% and 95.29% and 99.01%
- Displacement (%) of [3H]CP55,940 ([5]; CB1R L359V, 10 µM compound): 18 ± 9%
- Displacement (%) of [3H]CP55,940 ([6]; CB1R H270L, 10 µM compound): 8 ± 3%
- drop in potency compared to WT ([7]; V261L mutant vs WT, [35S]GTPγS): 10 fold
- Emax ([7]; V261L mutant, at 10 µM compared to WT, read-out: Emax (%)): 6 ± 2%
- percentage specific [3H]CP55,940 binding ([8]; log [ligand] (M) -5): -3.75% and 13.92% and 33.90%
- percentage specific [3H]CP55,940 binding ([8]; log [ligand] (M) -6): 31.56% and 68.45% and 21.77%
- percentage specific [3H]CP55,940 binding ([8]; log [ligand] (M) -7): 107.34% and 102.91% and 64.85%
- percentage specific [3H]CP55,940 binding ([8]; log [ligand] (M) -8): 162.50% and 142.72% and 87.25%
- percentage specific [3H]CP55,940 binding ([8]; log [ligand] (M) -9): 116.72% and 143.53% and 100.93%
- percentage specific [3H]CP55,940 binding ([8]; log [ligand] (M) -10): 74.84% and 102.27% and 99.53%
- Agonist-mediated activation [9]: 0.9 ± 0.1 fold over its basal
- Agonist-mediated activation [10]: 1.1 ± 0.1 fold over its basal
- Emax [11]: 49 ± 6%
- Agonist-mediated activation [12]: 0.9 ± 0.0 fold over its basal
- Emax ([13]; I110A mutant, at 10 µM compared to WT, read-out: Emax (%)): 28 ± 9%
- Emax [14]: 17 ± 4%
- percentage specific [3H]RO6957022 binding (competition association) ([15]; Time 1 min): -7.10% and 4.75% and 12.65%
- percentage specific [3H]RO6957022 binding (competition association) ([15]; Time 3 min): 13.92% and 19.07% and 26.36%
- percentage specific [3H]RO6957022 binding (competition association) ([15]; Time 5 min): 13.96% and 13.94% and 24.44%
- percentage specific [3H]RO6957022 binding (competition association) ([15]; Time 7 min): 24.14% and 47.87% and 28.29%
- percentage specific [3H]RO6957022 binding (competition association) ([15]; Time 10 min): 24.18% and 36.84% and 30.72%
- percentage specific [3H]RO6957022 binding (competition association) ([15]; Time 20 min): 40.15% and 32.14% and 34.58%
- percentage specific [3H]RO6957022 binding (competition association) ([15]; Time 30 min): 39.61% and 32.25% and 36.63%
- percentage specific [3H]RO6957022 binding (competition association) ([15]; Time 45 min): 20.89% and 29.77% and 37.77%
- percentage specific [3H]RO6957022 binding (competition association) ([15]; Time 60 min): 31.24% and 38.79% and 36.98%
- percentage specific [3H]RO6957022 binding (competition association) ([15]; Time 90 min): 31.73% and 32.90% and 39.73%
- percentage specific [3H]RO6957022 binding (competition association) ([15]; Time 120 min): 27.67% and 36.63% and 31.55%
- Emax ([16]; F117A mutant, at 10 µM compared to WT, read-out: Emax (%)): 2 ± 6%
- Emax ([17]; maximum effect at 10 µM compared to WT (Suppl. Table 6)): 109 ± 3%
- Emax ([17]; maximum effect compared to CP55,940): 134 ± 12%
- [35S]GTPγS binding, percentage of CP55,940 ([17]; log [agonist] (M) -5): 148.28% and 110.29% and 144.01%
- [35S]GTPγS binding, percentage of CP55,940 ([17]; log [agonist] (M) -6): 121.47% and 91.68% and 110.37%
- [35S]GTPγS binding, percentage of CP55,940 ([17]; log [agonist] (M) -7): 71.38% and 61.86% and 107.40%
- [35S]GTPγS binding, percentage of CP55,940 ([17]; log [agonist] (M) -8): 40.70% and 28.22% and 92.24%
- [35S]GTPγS binding, percentage of CP55,940 ([17]; log [agonist] (M) -9): -4.49% and -11.58% and 35.79%
- [35S]GTPγS binding, percentage of CP55,940 ([17]; log [agonist] (M) -10): 14.57% and -14.11% and 7.29%
- Agonist-mediated activation [18]: 1.1 ± 0.0 fold over its basal
- percentage specific [3H]RO6957022 binding (displacement) ([19]; log [agonist] (M) -5): 6.59% and 5.28% and -3.87%
- percentage specific [3H]RO6957022 binding (displacement) ([19]; log [agonist] (M) -6): 1.67% and 12.98% and 3.83%
- percentage specific [3H]RO6957022 binding (displacement) ([19]; log [agonist] (M) -7): 44.82% and 59.70% and 42.04%
- percentage specific [3H]RO6957022 binding (displacement) ([19]; log [agonist] (M) -7.5): 76.53% and 76.83% and 76.84%
- percentage specific [3H]RO6957022 binding (displacement) ([19]; log [agonist] (M) -8): 102.92% and 92.08% and 89.96%
- percentage specific [3H]RO6957022 binding (displacement) ([19]; log [agonist] (M) -9): 120.09% and 94.02% and 99.12%
SMILES: CC(C)(C)[C@@H](CO)NC(=O)c1nn(-c2c[n+]([O-])ccn2)c2c1C[C@@H]1C[C@H]21 [APD371]
- percentage specific [3H]CP55,940 binding ([3]; CB1R I267ECL2L, 10 µM ligand, replicates 1-3): 153.09 percentage and 95.47 percentage and 123.57 percentage
- percentage specific [3H]CP55,940 binding ([5]; CB1R L3596.51V, 10 µM ligand, replicates 1-3): 78.52 percentage and 68.29 percentage and 98.34 percentage
- percentage specific [3H]CP55,940 binding ([6]; CB1R H270ECL2L, 10 µM ligand, replicates 1-3): 89.52 percentage and 87.15 percentage and 98.55 percentage
- [35S]GTPγS binding ([7]; log [ligand] (M) -5): 2.52 percentage of WT and 5.75 percentage of WT and 9.01 percentage of WT
- [35S]GTPγS binding ([7]; log [ligand] (M) -6): -3.29 percentage of WT and 5.08 percentage of WT and 17.22 percentage of WT
- [35S]GTPγS binding ([7]; log [ligand] (M) -7): 3.77 percentage of WT and -3.23 percentage of WT and 7.12 percentage of WT
- [35S]GTPγS binding ([7]; log [ligand] (M) -8): -13.41 percentage of WT and -9.01 percentage of WT and -7.07 percentage of WT
- [35S]GTPγS binding ([7]; log [ligand] (M) -9): -3.12 percentage of WT and -6.34 percentage of WT and -8.82 percentage of WT
- [35S]GTPγS binding ([7]; log [ligand] (M) -10): 6.63 percentage of WT and -9.97 percentage of WT and -1.94 percentage of WT
- [35S]GTPγS binding ([13]; log [ligand] (M) -5): 8.02 percentage of WT and 49.60 percentage of WT and 23.20 percentage of WT and 29.78 percentage of WT
- [35S]GTPγS binding ([13]; log [ligand] (M) -6): -6.90 percentage of WT and 31.60 percentage of WT and 8.00 percentage of WT and 14.76 percentage of WT
- [35S]GTPγS binding ([13]; log [ligand] (M) -7): -11.72 percentage of WT and 23.80 percentage of WT and 1.10 percentage of WT and 21.50 percentage of WT
- [35S]GTPγS binding ([13]; log [ligand] (M) -8): -18.83 percentage of WT and 1.40 percentage of WT and -5.80 percentage of WT and 9.14 percentage of WT
- [35S]GTPγS binding ([13]; log [ligand] (M) -9): -17.87 percentage of WT and 6.80 percentage of WT and -8.60 percentage of WT and -1.19 percentage of WT
- [35S]GTPγS binding ([13]; log [ligand] (M) -10): -16.57 percentage of WT and -10.00 percentage of WT and -2.40 percentage of WT and -10.68 percentage of WT
- [35S]GTPγS binding ([16]; F1173.36A, log [ligand] (M) -5, individual replicates): -3.66 percentage of WT and 14.36 percentage of WT and -4.64 percentage of WT
